The text below walks through data of ChEMBL document CHEMBL1150403, “Synthesis of Hsp90 inhibitor dimers as potential antitumor agents” (Bioorg Med Chem, 2008).

What all share (type): functional, cell-based
Test [1] has as its system MCF7. The experiment in a line: Cytotoxicity against human MCF7 cells after 24 hrs. To be noted: MCF7, 24 h.
The subject of test [2] is SK-BR-3. The experiment in a line: Cytotoxicity against human SKBR3 cells after 24 hrs. Conditions: SK-BR-3, 24 h.
Test [3] concerns MCF7. The experiment in a line: Induction of Her2 degradation in human MCF7 cells by Western blotting analysis.

Molecules are shown by their SMILES. pIC50: −log10 of the molar value.

Consider `COc1cc(Cc2nc3c(N)ncnc3n2CCCC#CCNCCCCCCCCCCCCCCCCNCC#CCCCn2c(Cc3cc(OC)c(OC)c(OC)c3)nc3c(N)ncnc32)cc(OC)c1OC`, for which the pIC50 in test [1] is 5.80; in test [2], 5.50.

With `COc1cc(Cc2nc3c(N)ncnc3n2CCCC#CCO)cc(OC)c1OC`, the pIC50 in test [1] and in test [2] was under 4.00 in each case.

On to `CO[C@H]1/C=C/C=C(\C)C(=O)NC2=CC(=O)C(NCCCCNC3=C4C[C@@H](C)C[C@H](OC)[C@H](O)[C@@H](C)/C=C(\C)[C@H](OC(N)=O)[C@@H](OC)/C=C/C=C(\C)C(=O)NC(=CC3=O)C4=O)=C(C[C@@H](C)C[C@H](OC)[C@H](O)[C@@H](C)/C=C(\C)[C@@H]1OC(N)=O)C2=O`, for which the pIC50 in test [1] is 5.95; in test [2], 6.59.

In the case of `COc1cc(Cc2nc3c(N)ncnc3n2CCCC#CCNCCCCCCCCCCCCNCC#CCCCn2c(Cc3cc(OC)c(OC)c(OC)c3)nc3c(N)ncnc32)cc(OC)c1OC`, the pIC50 is 5.33 in test [1] and 5.24 in test [2]. For the same compound, in test [3], the Activity entry was “Dose-dependent effect”.

Turning to `COc1cc(Cc2nc3c(N)ncnc3n2CCCC#CCNCCCCCCCCNCC#CCCCn2c(Cc3cc(OC)c(OC)c(OC)c3)nc3c(N)ncnc32)cc(OC)c1OC`, the pIC50 was 4.51 in test [1] and 4.07 in test [2].

For `COc1cc(Cc2nc3c(N)ncnc3n2CCCC#CCNCCCCNCC#CCCCn2c(Cc3cc(OC)c(OC)c(OC)c3)nc3c(N)ncnc32)cc(OC)c1OC`, the pIC50 in test [1] and in test [2] was under 4.00 in each case.

For `C[C@@H]1C[C@H]2O[C@@H]2/C=C\C=C\C(=O)Cc2c(Cl)c(O)cc(O)c2C(=O)O1` [RADICICOL], the pIC50 was 7.05 in test [1] and 8.44 in test [2].

With `COc1cc(Cc2nc3c(N)ncnc3n2CCCC#CCNCCCCCCCCCCCCCCCCCCCCNCC#CCCCn2c(Cc3cc(OC)c(OC)c(OC)c3)nc3c(N)ncnc32)cc(OC)c1OC`, the pIC50 in test [1] was 5.84; in test [2], 5.88.

Take `C#CCCCn1c(Cc2cc(OC)c(OC)c(OC)c2)nc2c(N)ncnc21`: the pIC50 in test [1] was 4.34; in test [2], 4.50.

Take `CO[C@H]1/C=C/C=C(\C)C(=O)NC2=CC(=O)C(NCCCCCCCCCCCCNC3=C4C[C@@H](C)C[C@H](OC)[C@H](O)[C@@H](C)/C=C(\C)[C@H](OC(N)=O)[C@@H](OC)/C=C/C=C(\C)C(=O)NC(=CC3=O)C4=O)=C(C[C@@H](C)C[C@H](OC)[C@H](O)[C@@H](C)/C=C(\C)[C@@H]1OC(N)=O)C2=O`: the pIC50 in test [1] is 6.20; in test [2] it was 6.53.

As to `CO[C@H]1/C=C/C=C(\C)C(=O)NC2=CC(=O)C(NCCCCCCCCCCCCCCCCNC3=C4C[C@@H](C)C[C@H](OC)[C@H](O)[C@@H](C)/C=C(\C)[C@H](OC(N)=O)[C@@H](OC)/C=C/C=C(\C)C(=O)NC(=CC3=O)C4=O)=C(C[C@@H](C)C[C@H](OC)[C@H](O)[C@@H](C)/C=C(\C)[C@@H]1OC(N)=O)C2=O`, the pIC50 in test [1] is 6.37; in test [2], 6.82.

With `COc1cc(Cc2nc3c(N)ncnc3n2CCCC#CCNCCCCCCCCCCCCN)cc(OC)c1OC`, the pIC50 was 4.26 in test [1] and 4.88 in test [2].
